Tested on: hiRPCp2
Assay: Differentiation ability of hiRPCp2 expanded in K+ medium (qRT-PCR of CRX and BRN3A)
Format: cell-based, human
Conditions: Diff-2, late forced differentiation in ProB27 medium supplemented by DAPT, D10, qRT-PCR of CRX
Description: Total RNAs were extracted using Nucleospin RNA II kit (Macherey-Nagel) according to the manufacturer's protocol, and RNA yields and quality were checked with a NanoDrop spectrophotometer (Thermo Fisher Scientific). cDNA were synthesized from 250 ng of mRNA using the QuantiTect reverse transcription kit (Qiagen) following manufacturer's recommendations. Synthesized cDNA were then diluted at 1/20 in DNase-free water before performing quantitative PCR. qPCR analysis was performed on an Applied Biosystems real-time PCR machine (7500 Fast System) with custom TaqMan® Array 96-Well Fast plates and TaqMan® Gene expression Master Mix (Thermo Fisher Scientific) following manufacturer's instructions. All primers and MGB probes labeled with FAM for amplification were purchased from Thermo Fischer Scientific as described in Reichman et al., 2017 [2], ASCL1 (Assay ID Hs04187546_g1). Results were normalized against 18S and quantification of gene expression was based on the DeltaCt Method.
We tested the ability of the hiRPCs expanded after two passages (hiRPCp2) in K+ medium to be differentiated in retinal neurons. Three different culture conditions were tested: 1—By a spontaneous differentiation in ProB27 medium, a control condition. 2—By an “early forced” differentiation using ProB27 medium supplemented by DAPT, a Notch pathway inhibitor, directly after K+ medium condition at D3 (Diff 1). […]

C[C@H](NC(=O)Cc1cc(F)cc(F)c1)C(=O)N[C@H](C(=O)OC(C)(C)C)c1ccccc1 [DAPT]
differentiation of hiRPCp2: favors the hiRPCs differentiation in photoreceptor precursors
